The values that follow come from publication PMC10243098 (Journal of medicinal chemistry, 2023).

Series [1] addresses HAT1/Rbap46 enzyme complex (Homo sapiens, UniProt O14929). Nature of the series: HAT1 acetyl-click assay.
The target of series [2] is GCN5 (Homo sapiens, UniProt Q92830). The series is described as follows: Other acetyltransferase assay. It is filed as biochemical. The conditions noted are these: up to 100 μM.
Series [3] concerns the target PCAF (Homo sapiens, UniProt Q92831). The series is described as follows: Other acetyltransferase assay. Type of series: biochemical. The note with it: up to 100 μM.
Series [4] addresses KAT5 (Homo sapiens, UniProt Q92993). The series is described as follows: Other acetyltransferase assay. Type of series: biochemical. The conditions noted are these: up to 100 μM.
Series [5] deals with MYST4/KAT6b (Homo sapiens, UniProt Q8WYB5). Nature of the series: Other acetyltransferase assay. The note with it: up to 100 μM. It is filed as biochemical.
MYST4/KAT6b, sequence (Q8WYB5 whole entry): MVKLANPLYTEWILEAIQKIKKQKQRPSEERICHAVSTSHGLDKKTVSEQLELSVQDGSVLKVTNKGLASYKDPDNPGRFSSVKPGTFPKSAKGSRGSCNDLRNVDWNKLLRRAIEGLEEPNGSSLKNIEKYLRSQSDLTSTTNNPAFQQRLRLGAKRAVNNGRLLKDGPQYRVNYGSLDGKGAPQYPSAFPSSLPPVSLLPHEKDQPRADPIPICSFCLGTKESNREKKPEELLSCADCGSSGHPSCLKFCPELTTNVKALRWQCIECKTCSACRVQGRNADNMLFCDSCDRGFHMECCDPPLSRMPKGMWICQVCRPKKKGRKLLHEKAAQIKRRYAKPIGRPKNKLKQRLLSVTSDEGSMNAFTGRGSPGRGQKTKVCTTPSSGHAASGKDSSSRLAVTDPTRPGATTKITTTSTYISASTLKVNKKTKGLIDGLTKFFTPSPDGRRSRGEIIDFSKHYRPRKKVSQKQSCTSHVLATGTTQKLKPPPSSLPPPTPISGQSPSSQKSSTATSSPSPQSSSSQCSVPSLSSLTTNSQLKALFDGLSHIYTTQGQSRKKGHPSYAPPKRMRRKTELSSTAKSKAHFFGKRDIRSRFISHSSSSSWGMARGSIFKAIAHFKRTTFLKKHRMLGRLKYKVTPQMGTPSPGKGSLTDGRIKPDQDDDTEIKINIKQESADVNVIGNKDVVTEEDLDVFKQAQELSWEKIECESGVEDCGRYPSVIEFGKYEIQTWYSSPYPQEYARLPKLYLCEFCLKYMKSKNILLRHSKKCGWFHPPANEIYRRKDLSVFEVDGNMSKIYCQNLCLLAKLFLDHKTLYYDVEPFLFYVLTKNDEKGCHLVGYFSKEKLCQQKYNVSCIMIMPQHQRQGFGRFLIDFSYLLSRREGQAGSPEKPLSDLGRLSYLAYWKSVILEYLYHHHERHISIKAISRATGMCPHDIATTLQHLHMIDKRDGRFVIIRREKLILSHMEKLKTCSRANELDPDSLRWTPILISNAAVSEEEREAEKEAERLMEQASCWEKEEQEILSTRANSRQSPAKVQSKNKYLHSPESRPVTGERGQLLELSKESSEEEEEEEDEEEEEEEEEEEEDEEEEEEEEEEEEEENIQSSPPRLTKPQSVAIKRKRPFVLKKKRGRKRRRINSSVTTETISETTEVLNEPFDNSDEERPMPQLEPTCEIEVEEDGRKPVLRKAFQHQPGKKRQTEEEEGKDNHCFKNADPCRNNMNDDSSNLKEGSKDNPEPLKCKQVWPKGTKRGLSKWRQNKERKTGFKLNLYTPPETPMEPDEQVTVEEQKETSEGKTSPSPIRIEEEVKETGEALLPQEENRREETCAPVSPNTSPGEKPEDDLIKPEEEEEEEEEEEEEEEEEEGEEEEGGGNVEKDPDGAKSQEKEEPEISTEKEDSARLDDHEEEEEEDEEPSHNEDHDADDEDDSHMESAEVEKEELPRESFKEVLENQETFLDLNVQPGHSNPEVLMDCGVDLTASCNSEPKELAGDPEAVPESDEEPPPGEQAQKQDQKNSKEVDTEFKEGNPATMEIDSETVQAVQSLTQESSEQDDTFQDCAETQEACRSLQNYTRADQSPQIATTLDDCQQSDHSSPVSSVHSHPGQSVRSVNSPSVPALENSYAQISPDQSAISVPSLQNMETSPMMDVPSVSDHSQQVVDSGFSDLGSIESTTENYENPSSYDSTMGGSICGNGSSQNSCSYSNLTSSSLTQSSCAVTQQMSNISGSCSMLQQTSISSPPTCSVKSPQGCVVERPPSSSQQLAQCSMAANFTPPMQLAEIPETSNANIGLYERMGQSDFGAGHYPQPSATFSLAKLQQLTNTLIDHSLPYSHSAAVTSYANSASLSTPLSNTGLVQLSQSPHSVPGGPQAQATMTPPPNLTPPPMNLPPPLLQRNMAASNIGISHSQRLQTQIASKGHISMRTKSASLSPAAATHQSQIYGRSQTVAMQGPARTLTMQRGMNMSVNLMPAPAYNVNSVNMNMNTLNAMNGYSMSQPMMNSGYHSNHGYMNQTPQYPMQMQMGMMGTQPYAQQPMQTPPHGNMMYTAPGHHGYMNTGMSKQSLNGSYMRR
Series [6] relates to FAD-dependent oxidase. The series is described as follows: FAD oxidase reaction. It is filed as biochemical. The conditions noted are these: 0.01 μM FAD.
In series [7] the test system is H4 lysine 5 and 12 acetylation. Nature of the series: Nascent histone H4 acetylation in hTert-HME1 cells. Type of series: cell-based, human. The note with it: hTert-HME1, 12 hours.
For series [8] the following is noted: mouse, in vivo, ip.
For series [9], the system named is A549 tumors. The series is described as follows: A549 xenograft tumor growth. The note with it: 50 mg/kg and 100 mg/kg i.p. once every three days; p < 0.0001.
Series [10] is described as follows: Dose-finding tolerability, single i.p. injection. The conditions noted are these: mice.
A short description of series [11]: Plasma pharmacokinetics after single i.p. injection. The note with it: female, CD1, mouse, intraperitoneal, 100 mg/kg.
Series [12] concerns H4K12Ac in A549 tumors. The series is described as follows: H4K12Ac immunofluorescence in A549 tumors after single i.p. dose. The note with it: tumors harvested 24 hours later.
For series [13], the system named is HCC1806 cells. The series is described as follows: Cell growth inhibition. It is filed as cell-based, human.

HAT1/Rbap46 enzyme complex, sequence (O14929 whole entry): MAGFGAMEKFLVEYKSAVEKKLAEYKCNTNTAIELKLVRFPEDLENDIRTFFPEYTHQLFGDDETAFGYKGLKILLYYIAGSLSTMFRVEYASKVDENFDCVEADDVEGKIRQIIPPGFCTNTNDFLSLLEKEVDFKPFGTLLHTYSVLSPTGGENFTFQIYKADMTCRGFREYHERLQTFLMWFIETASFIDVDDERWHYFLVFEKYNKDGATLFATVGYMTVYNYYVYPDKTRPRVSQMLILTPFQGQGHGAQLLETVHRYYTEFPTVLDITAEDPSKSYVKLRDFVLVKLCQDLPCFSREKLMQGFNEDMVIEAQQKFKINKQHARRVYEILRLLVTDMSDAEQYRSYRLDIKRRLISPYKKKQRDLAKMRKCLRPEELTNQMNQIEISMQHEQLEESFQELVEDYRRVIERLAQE
HAT1/Rbap46 enzyme complex, sequence (Q16576 whole entry partner): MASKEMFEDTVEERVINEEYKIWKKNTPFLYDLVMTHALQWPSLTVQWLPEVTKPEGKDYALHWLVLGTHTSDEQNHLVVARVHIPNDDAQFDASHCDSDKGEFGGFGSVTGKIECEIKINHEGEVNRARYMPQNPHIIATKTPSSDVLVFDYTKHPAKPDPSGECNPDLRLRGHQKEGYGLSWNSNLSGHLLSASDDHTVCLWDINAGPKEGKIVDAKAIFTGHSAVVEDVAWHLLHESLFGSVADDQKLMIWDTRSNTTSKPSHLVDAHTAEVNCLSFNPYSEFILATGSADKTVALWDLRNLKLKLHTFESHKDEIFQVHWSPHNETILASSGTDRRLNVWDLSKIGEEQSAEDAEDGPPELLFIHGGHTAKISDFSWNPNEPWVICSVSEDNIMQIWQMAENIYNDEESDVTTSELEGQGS
KAT5, sequence (Q92993 whole entry): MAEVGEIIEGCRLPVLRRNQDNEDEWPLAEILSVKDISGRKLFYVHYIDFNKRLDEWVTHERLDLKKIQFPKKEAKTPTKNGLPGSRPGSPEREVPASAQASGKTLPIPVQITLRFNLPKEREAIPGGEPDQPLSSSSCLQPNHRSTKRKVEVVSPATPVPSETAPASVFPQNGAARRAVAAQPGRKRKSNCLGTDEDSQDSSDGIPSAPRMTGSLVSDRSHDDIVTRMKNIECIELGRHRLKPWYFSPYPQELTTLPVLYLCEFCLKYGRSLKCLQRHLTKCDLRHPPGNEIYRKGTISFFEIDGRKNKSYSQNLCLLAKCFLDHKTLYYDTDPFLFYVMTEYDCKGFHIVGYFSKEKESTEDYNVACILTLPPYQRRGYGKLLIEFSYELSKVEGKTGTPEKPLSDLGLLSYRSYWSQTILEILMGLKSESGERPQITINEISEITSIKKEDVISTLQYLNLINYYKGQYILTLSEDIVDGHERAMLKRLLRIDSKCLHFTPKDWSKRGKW
PCAF, sequence (Q92831 whole entry): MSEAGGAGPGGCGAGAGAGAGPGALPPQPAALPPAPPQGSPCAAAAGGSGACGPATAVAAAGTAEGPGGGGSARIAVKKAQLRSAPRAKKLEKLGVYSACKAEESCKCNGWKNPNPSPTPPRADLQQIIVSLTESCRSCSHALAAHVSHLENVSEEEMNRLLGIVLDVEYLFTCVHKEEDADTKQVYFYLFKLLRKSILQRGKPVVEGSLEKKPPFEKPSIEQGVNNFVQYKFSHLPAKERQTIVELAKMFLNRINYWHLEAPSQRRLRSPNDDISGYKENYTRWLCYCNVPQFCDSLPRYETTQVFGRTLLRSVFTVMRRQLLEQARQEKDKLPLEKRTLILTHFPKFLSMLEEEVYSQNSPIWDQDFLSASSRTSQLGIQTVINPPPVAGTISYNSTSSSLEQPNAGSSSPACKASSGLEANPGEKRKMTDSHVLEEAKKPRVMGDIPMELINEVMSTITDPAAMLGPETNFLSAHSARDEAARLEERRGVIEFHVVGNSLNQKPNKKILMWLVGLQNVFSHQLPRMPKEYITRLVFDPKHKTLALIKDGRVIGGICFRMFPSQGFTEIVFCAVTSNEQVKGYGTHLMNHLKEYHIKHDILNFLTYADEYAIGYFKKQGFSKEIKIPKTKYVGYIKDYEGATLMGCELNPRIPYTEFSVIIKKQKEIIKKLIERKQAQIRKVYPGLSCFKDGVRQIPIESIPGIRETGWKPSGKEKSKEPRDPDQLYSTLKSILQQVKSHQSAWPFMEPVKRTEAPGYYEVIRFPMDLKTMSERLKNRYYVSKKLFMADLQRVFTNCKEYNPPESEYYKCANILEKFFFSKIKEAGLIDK
GCN5, sequence (Q92830 whole entry): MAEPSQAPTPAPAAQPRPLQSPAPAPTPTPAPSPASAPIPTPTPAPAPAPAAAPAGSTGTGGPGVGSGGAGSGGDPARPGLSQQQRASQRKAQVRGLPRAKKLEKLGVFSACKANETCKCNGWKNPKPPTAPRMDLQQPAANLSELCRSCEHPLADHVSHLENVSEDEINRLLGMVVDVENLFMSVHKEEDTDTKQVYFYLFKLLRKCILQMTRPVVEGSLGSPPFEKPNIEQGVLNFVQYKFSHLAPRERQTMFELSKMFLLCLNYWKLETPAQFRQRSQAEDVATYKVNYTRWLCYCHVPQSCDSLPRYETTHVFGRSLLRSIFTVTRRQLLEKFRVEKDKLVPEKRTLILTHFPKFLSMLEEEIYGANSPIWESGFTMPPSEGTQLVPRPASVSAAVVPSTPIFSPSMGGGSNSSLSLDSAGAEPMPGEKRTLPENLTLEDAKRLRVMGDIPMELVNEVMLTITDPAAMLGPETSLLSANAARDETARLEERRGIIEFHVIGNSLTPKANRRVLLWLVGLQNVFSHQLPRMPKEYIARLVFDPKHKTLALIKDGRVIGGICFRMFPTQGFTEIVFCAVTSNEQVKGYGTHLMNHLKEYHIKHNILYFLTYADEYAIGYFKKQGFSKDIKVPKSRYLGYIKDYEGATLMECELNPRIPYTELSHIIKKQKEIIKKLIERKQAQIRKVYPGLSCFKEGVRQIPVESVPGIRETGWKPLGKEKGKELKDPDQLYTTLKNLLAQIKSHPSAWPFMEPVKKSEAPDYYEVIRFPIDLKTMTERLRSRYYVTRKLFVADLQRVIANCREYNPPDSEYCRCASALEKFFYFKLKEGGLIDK

For the compound “3-(3-(7-Chloro-8-ethyl-2,4-dioxo-3,4-dihydrobenzo[g]pteridin-10(2H)-yl)propoxy)benzonitrile [Compound 37i]”, the “HAT1 inhibitory activity (in words)” value in series [1] was “interfered with enzyme inhibition”.
The same measure, in the same setting: next, `CCc1cc2c(cc1Cl)nc1c(=O)[nH]c(=O)nc-1n2CCOCc1cccc(F)c1` [Compound 20b, 7-Chloro-8-ethyl-10-(2-((3-fluorobenzyl)oxy)ethyl)benzo[g]pteridine-2,4(3H,10H)-dione]: “interfered with enzyme inhibition”; `CCc1cc2c(cc1Cl)nc1c(=O)[nH]c(=O)nc-1n2CCOCc1ccc(C#N)cc1` [Compound 24g, 4-((2-(7-Chloro-8-ethyl-2,4-dioxo-3,4-dihydrobenzo[g]pteridin-10(2H)-yl)ethoxy)methyl)benzonitrile]: “interfered with enzyme inhibition”; `Cc1cc2nc3c(=O)[nH]c(=O)nc-3n(C[C@H](O)[C@H](O)[C@H](O)COP(=O)(O)OP(=O)(O)OC[C@H]3O[C@@H](n4cnc5c(N)ncnc54)[C@H](O)[C@@H]3O)c2cc1C` [FAD, flavin-adenine-dinucleotide, reference compound]: “no detectable inhibitory activity”.
For `Cc1cc2nc3c(=O)[nH]c(=O)nc-3n(C[C@H](O)[C@H](O)[C@H](O)COP(=O)(O)O)c2cc1C` [FMN, flavin-mononucleotide, reference compound], the “HAT1 inhibitory activity (in words)” value in series [1] is on record as “no detectable inhibitory activity”.
`CCc1cc2c(cc1Cl)nc1c(=O)[nH]c(=O)nc-1n2CCOCC(C)C` [JG-2016, 7-Chloro-8-ethyl-10-(2-isobutoxyethyl)benzo[g]pteridine-2,4(3H,10H)-dione]: the “inhibitory activity towards GCN5” value in series [2] is on record as “minimal or undetectable inhibitory activity”. Also, the “inhibitory activity towards PCAF” value in [3] is reported as “minimal or undetectable inhibitory activity”. The “inhibitory activity towards KAT5” value in series [4] is “minimal or undetectable inhibitory activity”. The “inhibitory activity towards MYST4/KAT6b” value in series [5] is given as “minimal or undetectable inhibitory activity”. Also, the “inhibition of FAD-dependent oxidase” value in series [6] is recorded as “no significant inhibitory activity”. Moreover, in series [7], the “H4 lysine 5 and 12 acetylation in cells” value is on record as “dose-dependent inhibition”. Besides, in series [8], the “tolerated dose with minimal toxicity” value is on record as “up to 250 mg/kg”. Moreover, the “tumor growth versus vehicle” value in [9] was “significantly impaired tumor growth”. Besides, in [10], the “dose at which signs of distress were observed” value came to 500 mg/kg. The compound further returned a concentration at 72 h in series [11] of 2050 ± 233 nM. The “H4K12Ac signal in tumors” value in [12] is reported as “dose-dependent decrease”.
In the case of `CC(=O)SCCNC(=O)CCNC(=O)[C@H](O)C(C)(C)COP(=O)(O)OP(=O)(O)OC[C@H]1O[C@@H](n2cnc3c(N)ncnc32)[C@H](O)[C@@H]1OP(=O)(O)O` [acetyl-CoA], the “preference of enzyme for native cofactor versus 4-pentynoyl-CoA” value in series [1] is on record as > 100 fold. The “suppression of pentynoylated product” value in [1] (1 μM acetyl-CoA, 100 μM 4-pentynoyl-CoA) is “completely suppressed”.
For `Cc1cc2nc3[nH]c(=O)[nH]c(=O)c3nc2cc1C` [di-methyl-alloxazine, reference compound], in series [1], the “HAT1 inhibitory activity (in words)” value is given as “no detectable inhibitory activity”.
As for `Cc1cc2nc3c(=O)[nH]c(=O)nc-3n(C[C@H](O)[C@H](O)[C@H](O)CO)c2cc1N(C)C` [roseoflavin, reference compound], the “cell growth inhibitory activity (in words)” value in series [13] is reported as “strong cell growth inhibitory properties”. Also, in series [1], the “HAT1 inhibitory activity (in words)” value was “inactive”.
